# Laboratory results as given in US12103919B2, “3-(5-oxy)-1-oxoisoindolin-2-yl)piperidine-2,6-dione derivatives and uses thereof” (NOVARTIS AG, priority 2021, dated 2024).
# Like-named read-outs stand apart in the source and are kept apart here.
# Target: T1, WIZ (Homo sapiens, UniProt O95785+Q96SW2)
# T1 construct: expressed in transfected cells
# Assay: Quantification of WIZ protein levels in HiBit tag fusion protein assay (293T cells)
# Assay type: cell-based
# Set-up: Dmax: dose or concentration left out as unconfirmed
# Details: for remaining activity at 25 µM / Dmax at 25 µM / Dmax: HEK-293T; for remaining activity at 25 µM: read-out: WIZ Amax; for Dmax at 25 µM / % degradation of WIZ (100 − Amax): 100 − Amax, at 25 uM; for Dmax at 25 µM / Dmax: read-out: % degradation of WIZ (100 − Amax); for DC50: WIZ HiBit assay in 293T cells, about 18 hours, 10-point 5-fold dilution, top 25 μM, read-out: WIZ AC50
# Method: The HiBit system from Promega was used to develop high-throughput and quantitative assays to measure changes in WIZ protein levels in response to compounds. The HiBit tag was derived from a split Nanoluciferase and has the following protein sequence: […] (SEQ ID NO: 1). The complementary fragment of Nanoluciferase (known as LgBit, from Promega), was added to the HiBit tag to form an active Nanoluciferase enzyme whose activity can be precisely measured. In this way, the levels of a fusion protein with the HiBit tag can be quantified in cell lysates.
# Lentiviral vectors, based on the Invitrogen™ pLenti6.2/V5 DEST backbone were constructed that places the HiBit tag upstream of WIZ and expressed the fusion protein from an HSVTK promotor.
# To ensure moderate and consistent expression of the HiBit-WIZ fusion protein across all cells in the population, stable cell lines were constructed from cells harboring a single copy of the construct. Lentivirus packaged with the constructs were made using the ViraPowerTMkit from Invitrogen™. 293T cells from ATCC (Catalog number: CRL-3216), were infected with the virus at low multiplicity of infection and selected by 5 μg/mL blasticidin in culture media for 2 weeks.
# The levels of HiBit-WIZ tagged fusion proteins in compound-treated cell lines were measured as follows:
# On day 1, cells were diluted to 1.0×10^6 cells/ml in normal growth medium. 20 μL of cell suspension were plated in each well of a solid white 384-well plate. Plates were incubated overnight in a 37° C. and 5% CO2 humidified tissue culture incubator.
# On day 2, serial dilutions of compounds were made in 384-well plates. Compound plates were set up with DMSO in columns 1, 2, 23, 24, and 10-point compound dilution series in column 3-12 and column 13-22. 10 mM stock solution of compound were placed into column 3 or 13 and a 1:5 serial dilution was carried out until there was a 10-point dilution series per compound. 50 nL of diluted compounds were transferred into the plated cells by Echo® (Labcyte) acoustic transfer. The highest concentration of compound was 25 μM. Plates were incubated overnight (about 18 hours) in a 37° C. and 5% CO2 humidified tissue culture incubator.
# On day 3, plates were removed from the incubator and allowed to equilibrate at room temperature for 60 minutes. HiBit substrate (Nano-Glo® HiBit Lytic Detection System, Promega Catalogue number: N3050) was added as described by the manufacturers protocols. Plates were incubated at room temperature for 30 minutes and luminescence was read using an EnVision® reader (PerkinElmer®). Data was analyzed and visualized using the Spotfire® software package.
# WIZ Amax reflects the DMSO-normalized, curve-fitted percentage of WIZ-HiBit remaining at 25 uM. It was calculated by normalizing DMSO controls to 100%, parametric curve fitting of the dose response data (10-point, 5-fold), followed by calculation of response at 25 uM using the fitted equation.
# [1] = DMSO-normalized, curve-fitted percentage of WIZ-HiBit remaining at 25 uM
# T1 sequence (O95785 whole entry): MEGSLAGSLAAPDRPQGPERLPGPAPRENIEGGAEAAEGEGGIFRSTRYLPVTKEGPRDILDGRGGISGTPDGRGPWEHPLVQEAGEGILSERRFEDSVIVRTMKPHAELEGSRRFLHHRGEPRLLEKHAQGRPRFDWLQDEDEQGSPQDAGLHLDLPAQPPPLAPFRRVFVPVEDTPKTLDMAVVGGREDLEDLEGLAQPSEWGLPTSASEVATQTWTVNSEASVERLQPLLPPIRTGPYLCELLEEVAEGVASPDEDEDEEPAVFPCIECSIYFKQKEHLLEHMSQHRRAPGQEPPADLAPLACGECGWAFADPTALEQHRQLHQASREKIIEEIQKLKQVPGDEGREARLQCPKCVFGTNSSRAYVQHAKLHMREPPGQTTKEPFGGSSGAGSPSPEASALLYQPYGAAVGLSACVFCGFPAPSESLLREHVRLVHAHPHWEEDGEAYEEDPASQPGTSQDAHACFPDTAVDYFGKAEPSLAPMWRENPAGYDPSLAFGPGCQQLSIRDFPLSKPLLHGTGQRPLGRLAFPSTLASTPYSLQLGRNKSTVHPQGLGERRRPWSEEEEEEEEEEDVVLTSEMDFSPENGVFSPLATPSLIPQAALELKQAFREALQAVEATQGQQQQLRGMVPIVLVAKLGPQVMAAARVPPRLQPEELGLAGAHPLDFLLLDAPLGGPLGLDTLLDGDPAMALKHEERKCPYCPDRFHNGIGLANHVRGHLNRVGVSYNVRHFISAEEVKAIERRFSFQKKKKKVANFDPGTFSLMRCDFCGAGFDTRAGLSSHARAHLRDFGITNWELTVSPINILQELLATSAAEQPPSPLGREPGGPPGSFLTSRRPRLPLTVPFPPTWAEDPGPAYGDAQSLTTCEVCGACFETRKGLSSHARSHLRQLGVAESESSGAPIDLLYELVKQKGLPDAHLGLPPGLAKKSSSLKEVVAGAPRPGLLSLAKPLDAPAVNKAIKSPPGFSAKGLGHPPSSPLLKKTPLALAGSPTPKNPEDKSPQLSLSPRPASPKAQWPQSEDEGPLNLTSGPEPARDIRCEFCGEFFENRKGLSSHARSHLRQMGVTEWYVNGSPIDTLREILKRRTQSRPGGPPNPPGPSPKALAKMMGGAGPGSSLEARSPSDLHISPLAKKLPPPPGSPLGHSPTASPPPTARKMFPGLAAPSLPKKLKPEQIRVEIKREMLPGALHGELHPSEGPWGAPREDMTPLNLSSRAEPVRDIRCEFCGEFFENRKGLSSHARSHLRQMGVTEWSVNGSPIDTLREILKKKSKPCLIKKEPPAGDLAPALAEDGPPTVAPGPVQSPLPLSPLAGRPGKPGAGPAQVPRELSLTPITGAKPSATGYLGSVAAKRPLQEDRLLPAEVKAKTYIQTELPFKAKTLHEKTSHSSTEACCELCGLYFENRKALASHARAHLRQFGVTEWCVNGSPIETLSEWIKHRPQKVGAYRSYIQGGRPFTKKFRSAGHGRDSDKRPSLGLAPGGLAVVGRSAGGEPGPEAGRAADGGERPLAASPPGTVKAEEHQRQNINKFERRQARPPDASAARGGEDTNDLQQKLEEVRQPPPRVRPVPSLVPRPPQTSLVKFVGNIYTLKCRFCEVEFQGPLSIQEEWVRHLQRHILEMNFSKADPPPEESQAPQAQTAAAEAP
# T1 sequence (Q96SW2 whole entry): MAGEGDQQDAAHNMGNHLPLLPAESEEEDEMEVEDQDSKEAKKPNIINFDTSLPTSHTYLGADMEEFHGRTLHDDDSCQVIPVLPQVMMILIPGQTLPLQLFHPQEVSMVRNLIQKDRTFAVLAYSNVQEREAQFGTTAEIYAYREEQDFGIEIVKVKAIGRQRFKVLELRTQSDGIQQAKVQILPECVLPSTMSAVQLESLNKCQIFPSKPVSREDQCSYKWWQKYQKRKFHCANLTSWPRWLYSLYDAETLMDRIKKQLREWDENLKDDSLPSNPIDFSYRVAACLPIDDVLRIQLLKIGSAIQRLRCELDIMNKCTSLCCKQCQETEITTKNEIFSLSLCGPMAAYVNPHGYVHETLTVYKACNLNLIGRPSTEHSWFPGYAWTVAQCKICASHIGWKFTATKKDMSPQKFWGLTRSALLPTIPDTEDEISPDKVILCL
# T1 sequence (Q16531 whole entry partner): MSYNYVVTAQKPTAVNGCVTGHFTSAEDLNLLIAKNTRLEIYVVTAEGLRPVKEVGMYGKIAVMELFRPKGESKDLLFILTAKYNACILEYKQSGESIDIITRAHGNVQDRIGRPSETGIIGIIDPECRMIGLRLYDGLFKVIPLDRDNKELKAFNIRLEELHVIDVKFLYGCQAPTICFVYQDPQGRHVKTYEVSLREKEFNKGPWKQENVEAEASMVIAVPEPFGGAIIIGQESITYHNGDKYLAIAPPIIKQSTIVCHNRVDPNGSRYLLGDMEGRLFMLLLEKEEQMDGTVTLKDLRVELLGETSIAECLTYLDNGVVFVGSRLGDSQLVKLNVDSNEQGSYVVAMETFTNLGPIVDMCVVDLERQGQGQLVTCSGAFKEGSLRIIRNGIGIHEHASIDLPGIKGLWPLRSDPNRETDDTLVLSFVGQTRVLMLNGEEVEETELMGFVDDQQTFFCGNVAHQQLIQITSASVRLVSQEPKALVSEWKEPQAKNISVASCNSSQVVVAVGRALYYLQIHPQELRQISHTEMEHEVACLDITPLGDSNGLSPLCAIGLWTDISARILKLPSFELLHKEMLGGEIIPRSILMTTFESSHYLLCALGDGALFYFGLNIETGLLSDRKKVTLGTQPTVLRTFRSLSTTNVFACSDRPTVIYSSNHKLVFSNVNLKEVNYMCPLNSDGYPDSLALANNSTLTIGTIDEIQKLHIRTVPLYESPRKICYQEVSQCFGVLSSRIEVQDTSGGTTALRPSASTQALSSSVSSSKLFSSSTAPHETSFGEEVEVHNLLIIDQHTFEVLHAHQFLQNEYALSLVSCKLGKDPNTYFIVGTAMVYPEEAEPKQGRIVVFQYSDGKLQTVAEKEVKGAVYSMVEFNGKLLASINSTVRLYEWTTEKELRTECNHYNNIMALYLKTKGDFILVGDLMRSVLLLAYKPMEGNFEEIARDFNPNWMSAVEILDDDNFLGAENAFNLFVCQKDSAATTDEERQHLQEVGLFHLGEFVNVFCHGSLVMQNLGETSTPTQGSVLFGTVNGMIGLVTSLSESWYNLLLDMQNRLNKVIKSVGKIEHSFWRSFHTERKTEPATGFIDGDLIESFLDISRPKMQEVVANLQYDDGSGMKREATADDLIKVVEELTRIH
remaining activity at 25 µM [1] [%],Dmax at 25 µM [%],WIZ Amax [1] [%],% degradation of WIZ (100 − Amax) [%],Compound,DC50 [nM],Dmax [%],remaining activity at 25 µM [%]
69,31,,,"O=C1CCC(N2Cc3cc(O[C@@H]4CCCN(C5CC(F)(F)C5)C4)ccc3C2=O)C(=O)N1 (mixture of isomers) [Example 29, 3-(5-(((R)-1-(3,3-difluorocyclobutyl)piperidin-3-yl)oxy)-1-oxoisoindolin-2-yl)piperidine-2,6-dione]",82,,
,,,,"CCN1C[C@H](C)C[C@@H](Oc2ccc3c(c2)CN(C2CCC(=O)NC2=O)C3=O)C1 (mixture of isomers) [Example 75-1, 3-(5-(((3R,5R)-1-ethyl-5-methylpiperidin-3-yl)oxy)-1-oxoisoindolin-2-yl)piperidine-2,6-dione]",0.9,86.6,13.4
,,,,"CCN1C[C@H](O)C[C@@H](Oc2ccc3c(c2)CN(C2CCC(=O)NC2=O)C3=O)C1 (mixture of isomers) [Example 34, rac-3-(5-(((3R,5R)-1-Ethyl-5-hydroxypiperidin-3-yl)oxy)-1-oxoisoindolin-2-yl)piperidine-2,6-dione]",15,80,20
,,,,"CCN1CC[C@H](C)[C@@H](Oc2ccc3c(c2)CN(C2CCC(=O)NC2=O)C3=O)C1 (mixture of isomers) [Example 35, rac-3-(5-(((3R,4S)-1-ethyl-4-methylpiperidin-3-yl)oxy)-1-oxoisoindolin-2-yl)piperidine-2,6-dione]",26,31.9,68.1
,,,,"CCN1CCC[C@@H](Oc2ccc3c(c2)CN(C2CCC(=O)NC2=O)C3=O)[C@H]1C (mixture of isomers) [Example 44, rac-3-(5-(((2R,3R)-1-ethyl-2-methylpiperidin-3-yl)oxy)-1-oxoisoindolin-2-yl)piperidine-2,6-dione]",60,15.8,84.2
,,,,"CCN1C[C@@H](C)C[C@@H](Oc2ccc3c(c2)CN(C2CCC(=O)NC2=O)C3=O)C1 (mixture of isomers) [Example 45, rac-3-(5-(((3R,5S)-1-ethyl-5-methylpiperidin-3-yl)oxy)-1-oxoisoindolin-2-yl)piperidine-2,6-dione]",7.6,43.7,56.3
,,,,"CCN1CC[C@@H](C)[C@@H](Oc2ccc3c(c2)CN(C2CCC(=O)NC2=O)C3=O)C1 (mixture of isomers) [Example 46, rac-3-(5-(((3R,4R)-1-ethyl-4-methylpiperidin-3-yl)oxy)-1-oxoisoindolin-2-yl)piperidine-2,6-dione]",> 25000,,101
,,,,"CCN1C[C@@H](O)C[C@@H](Oc2ccc3c(c2)CN(C2CCC(=O)NC2=O)C3=O)C1 (mixture of isomers) [Example 47, rac-3-(5-(((3R,5S)-1-ethyl-5-hydroxypiperidin-3-yl)oxy)-1-oxoisoindolin-2-yl)piperidine-2,6-dione]",88,22.8,77.2
,,,,"CCN1C[C@H](C)C[C@@H](Oc2ccc3c(c2)CN(C2CCC(=O)NC2=O)C3=O)C1 (mixture of isomers) [Example 52, rac-3-(5-(((3R,5R)-1-Ethyl-5-methylpiperidin-3-yl)oxy)-1-oxoisoindolin-2-yl)piperidine-2,6-dione]",5.5,76.2,23.8
,,,,"CCN1CCC2(CCC2)C(Oc2ccc3c(c2)CN(C2CCC(=O)NC2=O)C3=O)C1 (racemic) [Example 54, rac-3-(5-((7-ethyl-7-azaspiro[3.5]nonan-5-yl)oxy)-1-oxoisoindolin-2-yl)piperidine-2,6-dione]",> 25000,,102
,,,,"CCN1CC2CC(Oc3ccc4c(c3)CN(C3CCC(=O)NC3=O)C4=O)C1C2 (racemic) [Example 62, rac-3-(5-((2-ethyl-2-azabicyclo[2.2.1]heptan-6-yl)oxy)-1-oxoisoindolin-2-yl)piperidine-2,6-dione]",83,27.1,72.9
78.2,21.8,,,"CCN1C[C@@H]2C[C@@H]2[C@H](Oc2ccc3c(c2)CN(C2CCC(=O)NC2=O)C3=O)C1 (relative stereo) [Example 53, 3-(5-(((1R*,5S*,6S*)-3-ethyl-3-azabicyclo[4.1.0]heptan-5-yl)oxy)-1-oxoisoindolin-2-yl)piperidine-2,6-dione]",71,,
,,,,"CCN1CC[C@H](F)[C@@H](Oc2ccc3c(c2)CN(C2CCC(=O)NC2=O)C3=O)C1 (relative stereo) [Example 55, 3-(5-(((3S*,4S*)-1-ethyl-4-fluoropiperidin-3-yl)oxy)-1-oxoisoindolin-2-yl)piperidine-2,6-dione]",26,44.9,55.1
,,,,"CCN1CC[C@@H](F)[C@H](Oc2ccc3c(c2)CN(C2CCC(=O)NC2=O)C3=O)C1 (relative stereo) [Example 56, 3-(5-(((3R*,4R*)-1-ethyl-4-fluoropiperidin-3-yl)oxy)-1-oxoisoindolin-2-yl)piperidine-2,6-dione]",950,16.2,83.8
,,,,"CCN1CC[C@@H](F)[C@@H](Oc2ccc3c(c2)CN(C2CCC(=O)NC2=O)C3=O)C1 (relative stereo) [Example 57, 3-(5-(((3S*,4R*)-1-ethyl-4-fluoropiperidin-3-yl)oxy)-1-oxoisoindolin-2-yl)piperidine-2,6-dione]",170,16.9,83.1
,,,,"CCN1CC[C@H](F)[C@H](Oc2ccc3c(c2)CN(C2CCC(=O)NC2=O)C3=O)C1 (relative stereo) [Example 58, 3-(5-(((3R*,4S*)-1-ethyl-4-fluoropiperidin-3-yl)oxy)-1-oxoisoindolin-2-yl)piperidine-2,6-dione]",4.9,60.7,39.3
,,61.38,38.62,"CCN1CC(Oc2ccc3c(c2)CN(C2CCC(=O)NC2=O)C3=O)CC2(CC2)C1 (single isomer, unassigned) [Example 18, 3-(5-((5-ethyl-5-azaspiro[2.5]octan-7-yl)oxy)-1-oxoisoindolin-2-yl)piperidine-2,6-dione]",20,,
,,37.13,62.87,"CCN1CC(Oc2ccc3c(c2)CN(C2CCC(=O)NC2=O)C3=O)CC2(CC2)C1 (single isomer, unassigned) [Example 19, 3-(5-((5-ethyl-5-azaspiro[2.5]octan-7-yl)oxy)-1-oxoisoindolin-2-yl)piperidine-2,6-dione]",12,,
75.9,24.1,,,"CCN1C[C@H]2C[C@H]2[C@H](Oc2ccc3c(c2)CN(C2CCC(=O)NC2=O)C3=O)C1 (single isomer, unassigned) [Example 20, 3-(5-(((1S*,5S*,6R*)-3-ethyl-3-azabicyclo[4.1.0]heptan-5-yl)oxy)-1-oxoisoindolin-2-yl)piperidine-2,6-dione]",3750,,
25.7,74.3,,,"CCN1C[C@@H]2C[C@@H]2[C@@H](Oc2ccc3c(c2)CN(C2CCC(=O)NC2=O)C3=O)C1 (single isomer, unassigned) [Example 21, 3-(5-(((1R*,5R*,6S*)-3-ethyl-3-azabicyclo[4.1.0]heptan-5-yl)oxy)-1-oxoisoindolin-2-yl)piperidine-2,6-dione]",3.5,,
75.7,24.4,,,"CCN1C[C@H]2C[C@H]2[C@@H](Oc2ccc3c(c2)CN(C2CCC(=O)NC2=O)C3=O)C1 (single isomer, unassigned) [Example 22, 3-(5-(((1S*,5R*,6R*)-3-ethyl-3-azabicyclo[4.1.0]heptan-5-yl)oxy)-1-oxoisoindolin-2-yl)piperidine-2,6-dione]",83,,
,,,,"CCN1CCC(C)(C)C(Oc2ccc3c(c2)CN(C2CCC(=O)NC2=O)C3=O)C1 (single isomer, unassigned) [Example 48, 3-(5-((1-ethyl-4,4-dimethylpiperidin-3-yl)oxy)-1-oxoisoindolin-2-yl)piperidine-2,6-dione]",> 25000,,102
